Drawing on patent publication US20110212080A1, “UREA DERIVATIVES AS ANTIBACTERIAL AGENTS” (priority 2008, published 2011), this text covers IC50 for two molecules.

This assay has as its target T1, LpxC enzyme (Escherichia coli, UniProt P0A725).
T1 sequence (P0A725 1-305): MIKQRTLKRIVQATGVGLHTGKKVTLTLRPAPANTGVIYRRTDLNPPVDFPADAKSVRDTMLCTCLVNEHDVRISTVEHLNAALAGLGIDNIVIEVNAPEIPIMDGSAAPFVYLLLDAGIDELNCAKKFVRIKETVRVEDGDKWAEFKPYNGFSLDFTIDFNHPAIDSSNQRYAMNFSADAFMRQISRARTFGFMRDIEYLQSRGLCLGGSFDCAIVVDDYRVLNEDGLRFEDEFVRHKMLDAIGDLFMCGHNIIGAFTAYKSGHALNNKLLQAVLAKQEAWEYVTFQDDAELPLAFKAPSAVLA
The experiment in a line: standard LpxC assay (RapidFire high-throughput mass spectrometry). In kind it is biochemical. The conditions noted are these: 1.0 μM UDP-3-O-(R-3-hydroxymyristoyl)-N-acetylglucosamine, 60 minutes at room temperature, 2% DMSO; read-out: E.coli IC50. The protocol: The standard LpxC assay consists of […] LpxC enzyme, 1.0 μM UDP-3-O-(R-3-hydroxymyristoyl)-N-acetylglucosamine, and test compound, in assay buffer and 2% DMSO. Assay buffer is comprised of 25 mM HEPES, pH 7.3, 150 mM NaCl, 2.0 mM DTT, and 0.01% BSA. The enzyme reaction is carried out in a 96-well assay plate, in a final volume of 102 μL. Solutions of rest compounds are prepared in 100% DMSO. Reaction additions, in order, are (1) 2.0 μL compound solution, (2) 80 μL of assay buffer, (3) 10 μL of 10 μM UDP-3-O-(R-3-hydroxymyristoyl)-N-acetylgucosamine (in assay buffer) and, (4) 10 μL of LpxC enzyme (20 nM in assay buffer) to initiate the reaction. In positive control reactions, addition (1) has 2.0 μL of 100% DMSO (without compound); these reactions are used as the total signal (TSB) value. Reactions are incubated at room temperature for 60 minutes when 10 μL of 1 N HCl is added to stop the reaction. The plate is shaken by hand for 10 seconds to ensure complete quenching. […]
The concentrations of substrate and product in the reaction mixtures are determined with BioTrove's proprietary RapidFire™ high-throughput mass spectrometry (HTMS). […] The mass spectrometry peak areas of the substrate and product are measured to determine the concentration of these analytes. […] Percent inhibition, % I, in test samples is determined from the following equation: […]

For `C[C@@H](O)[C@@H](NC(=O)N1CCCC(c2ccc(C#Cc3ccccc3)cc2)C1)C(=O)NO` (some centres unmarked) [Compound 41], the IC50 lay within 50 to 500 nM. In the case of `C[C@@H](NC(=O)N[C@@H](C(=O)NO)[C@@H](C)O)c1ccc(-n2cccn2)cc1` [Compound 46], the IC50 was in the range of 5000 to 10000 nM.
